{"source": "paper PMC9791402", "about": "“Yeast 9-1-1 complex acts as a sliding clamp for DNA synthesis by DNA polymerase ε” (The Journal of Biological Chemistry, 2022)", "target": "T1, Polε (WT holoenzyme) (Saccharomyces cerevisiae, UniProt P21951)", "T1 construct": "gene POL2; four-subunit holoenzyme, GST tag on Pol2 cut with PreScission protease, gel filtration, expressed in yeast YRP654; with DNA polymerase epsilon subunit B; DNA polymerase epsilon subunit C; DNA polymerase epsilon subunit D", "T1 sequence (P21951 whole entry)": "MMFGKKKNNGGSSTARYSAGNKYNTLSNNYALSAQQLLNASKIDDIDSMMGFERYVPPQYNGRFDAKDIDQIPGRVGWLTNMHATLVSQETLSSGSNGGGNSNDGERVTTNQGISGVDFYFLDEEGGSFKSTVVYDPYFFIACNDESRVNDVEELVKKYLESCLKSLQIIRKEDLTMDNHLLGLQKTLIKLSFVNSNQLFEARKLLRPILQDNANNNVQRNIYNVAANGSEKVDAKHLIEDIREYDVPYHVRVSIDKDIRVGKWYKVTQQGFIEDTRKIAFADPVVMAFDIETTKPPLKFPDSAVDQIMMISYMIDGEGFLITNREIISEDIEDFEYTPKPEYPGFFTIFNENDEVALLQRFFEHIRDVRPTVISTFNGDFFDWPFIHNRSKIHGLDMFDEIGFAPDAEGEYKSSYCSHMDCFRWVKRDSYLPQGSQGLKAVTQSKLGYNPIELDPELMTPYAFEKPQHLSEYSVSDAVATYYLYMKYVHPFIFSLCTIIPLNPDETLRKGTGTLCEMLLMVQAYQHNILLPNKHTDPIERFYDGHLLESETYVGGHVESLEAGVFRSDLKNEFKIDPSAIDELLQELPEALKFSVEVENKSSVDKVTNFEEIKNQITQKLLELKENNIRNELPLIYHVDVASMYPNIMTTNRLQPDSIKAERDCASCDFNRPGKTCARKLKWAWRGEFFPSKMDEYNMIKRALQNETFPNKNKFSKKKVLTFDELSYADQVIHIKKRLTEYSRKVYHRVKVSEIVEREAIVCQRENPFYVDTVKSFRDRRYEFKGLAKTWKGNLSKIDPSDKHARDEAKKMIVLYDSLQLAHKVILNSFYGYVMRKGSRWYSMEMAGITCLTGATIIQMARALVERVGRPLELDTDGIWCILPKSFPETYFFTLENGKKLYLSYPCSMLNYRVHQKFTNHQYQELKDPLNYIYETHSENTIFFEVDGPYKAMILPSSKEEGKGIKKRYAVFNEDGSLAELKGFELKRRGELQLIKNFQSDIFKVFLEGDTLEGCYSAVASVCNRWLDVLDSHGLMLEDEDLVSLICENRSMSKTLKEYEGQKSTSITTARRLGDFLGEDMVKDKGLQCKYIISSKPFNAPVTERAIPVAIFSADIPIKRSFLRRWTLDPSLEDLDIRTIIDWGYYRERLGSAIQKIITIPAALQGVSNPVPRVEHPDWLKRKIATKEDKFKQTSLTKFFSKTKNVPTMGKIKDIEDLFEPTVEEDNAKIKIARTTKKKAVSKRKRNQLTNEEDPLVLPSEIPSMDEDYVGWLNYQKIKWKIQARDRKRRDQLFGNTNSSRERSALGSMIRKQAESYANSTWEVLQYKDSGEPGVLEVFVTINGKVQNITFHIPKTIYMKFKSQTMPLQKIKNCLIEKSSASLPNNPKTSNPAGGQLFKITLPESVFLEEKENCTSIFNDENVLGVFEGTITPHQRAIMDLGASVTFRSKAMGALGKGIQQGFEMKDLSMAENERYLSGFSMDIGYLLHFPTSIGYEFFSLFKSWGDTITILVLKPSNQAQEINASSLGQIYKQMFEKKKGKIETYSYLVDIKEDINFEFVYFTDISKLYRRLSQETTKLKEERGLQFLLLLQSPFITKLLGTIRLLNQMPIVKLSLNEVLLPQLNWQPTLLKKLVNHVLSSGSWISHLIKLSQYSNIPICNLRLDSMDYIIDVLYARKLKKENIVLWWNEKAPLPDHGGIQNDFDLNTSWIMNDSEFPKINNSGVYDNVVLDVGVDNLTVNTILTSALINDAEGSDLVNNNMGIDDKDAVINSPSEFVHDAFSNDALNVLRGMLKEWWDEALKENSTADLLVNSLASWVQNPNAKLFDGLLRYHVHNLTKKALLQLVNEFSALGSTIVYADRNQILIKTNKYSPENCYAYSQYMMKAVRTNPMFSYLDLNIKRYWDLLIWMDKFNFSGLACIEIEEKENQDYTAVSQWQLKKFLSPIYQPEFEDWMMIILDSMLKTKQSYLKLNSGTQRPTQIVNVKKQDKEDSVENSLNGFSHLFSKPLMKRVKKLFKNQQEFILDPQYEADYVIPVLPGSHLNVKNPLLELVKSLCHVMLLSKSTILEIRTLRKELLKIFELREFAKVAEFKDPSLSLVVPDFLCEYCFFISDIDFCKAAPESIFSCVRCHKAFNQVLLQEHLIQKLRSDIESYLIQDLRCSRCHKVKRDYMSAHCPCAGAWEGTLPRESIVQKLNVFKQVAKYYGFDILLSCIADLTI", "T1 sequence (P24482 whole entry partner)": "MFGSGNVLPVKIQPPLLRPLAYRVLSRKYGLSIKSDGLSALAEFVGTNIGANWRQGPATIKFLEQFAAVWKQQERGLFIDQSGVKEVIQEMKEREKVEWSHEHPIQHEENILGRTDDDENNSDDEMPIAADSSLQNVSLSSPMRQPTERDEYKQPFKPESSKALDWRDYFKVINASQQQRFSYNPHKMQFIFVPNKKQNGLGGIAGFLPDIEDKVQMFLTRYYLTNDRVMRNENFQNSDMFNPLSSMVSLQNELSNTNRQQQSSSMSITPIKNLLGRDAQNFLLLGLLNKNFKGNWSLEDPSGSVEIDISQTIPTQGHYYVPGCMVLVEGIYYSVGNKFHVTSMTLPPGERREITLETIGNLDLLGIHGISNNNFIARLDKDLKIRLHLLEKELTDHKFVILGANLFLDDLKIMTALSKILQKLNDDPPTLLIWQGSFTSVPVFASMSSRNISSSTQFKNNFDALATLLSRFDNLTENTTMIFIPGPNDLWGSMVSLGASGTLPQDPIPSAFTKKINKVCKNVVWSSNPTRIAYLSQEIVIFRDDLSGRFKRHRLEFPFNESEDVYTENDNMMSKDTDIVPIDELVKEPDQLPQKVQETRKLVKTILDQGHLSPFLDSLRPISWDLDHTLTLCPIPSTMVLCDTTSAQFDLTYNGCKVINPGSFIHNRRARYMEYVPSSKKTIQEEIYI", "T1 sequence (P27344 whole entry partner)": "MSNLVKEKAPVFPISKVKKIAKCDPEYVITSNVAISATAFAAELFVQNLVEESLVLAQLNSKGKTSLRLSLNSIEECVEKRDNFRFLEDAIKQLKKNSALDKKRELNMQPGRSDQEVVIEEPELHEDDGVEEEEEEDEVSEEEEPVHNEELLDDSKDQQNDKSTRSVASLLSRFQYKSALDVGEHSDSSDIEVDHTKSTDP", "T1 sequence (Q04603 whole entry partner)": "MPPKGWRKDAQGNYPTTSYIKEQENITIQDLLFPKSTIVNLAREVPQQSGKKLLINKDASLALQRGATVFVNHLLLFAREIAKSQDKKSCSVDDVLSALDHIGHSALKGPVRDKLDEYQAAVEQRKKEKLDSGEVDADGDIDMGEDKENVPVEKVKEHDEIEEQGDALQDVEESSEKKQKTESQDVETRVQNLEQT", "assay": "gel-based primer extension, […]-labeled primer", "type": "biochemical", "conditions": "50 μM dCTP running start opposite a run of 5 template G; 5 mM MgCl2, pH 7.5, 30 °C"}
{"smiles": "Nc1ccn([C@H]2C[C@H](O)[C@@H](COP(=O)(O)OP(=O)(O)OP(=O)(O)O)O2)c(=O)n1", "note": "[dCTP]", "values": [{"measurement": "gel-based primer extension, 32P-labeled primer", "value": "dCTP was added to initiate DNA synthesis opposite the template G residues"}]}
